The numbers were not newly measured in paper PMC11320730, “5-Methoxy-2-aminoindane Reverses Diet-Induced Obesity and Improves Metabolic Parameters in Mice: A Potential New Class of Antiobesity Therapeutics” (ACS Pharmacology & Translational Science, 2024), which cites them from elsewhere.

The subject of series [1] is rats fed a cafeteria diet. More on the design: method as in PMID 35664477. The following applies: cited from earlier work.
In series [2] the test system is lean mice, DIO mice, ob/ob mice and melanocortin-receptor 4 knockout mice. More on the design: method as in PMID 35953488. As to conditions: ob/ob and melanocortin-receptor 4 knockout mice; cited from earlier work.
The test system of series [3] is adult female participants with anorexia nervosa. As to conditions: single 25 mg dose with psychological support, 10 adult female participants; cited from earlier work.

On to `CN(C)CCc1c[nH]c2cccc(OP(=O)(O)O)c12` [psilocybin], for which, in series [1] (at the given doses), the weight loss entry is given as “no effect”. The weight gain entry in series [1] is on record as “reduced”. In series [2], the body weight result is given as “no impact” and the food intake entry is recorded as “no impact”. Besides, the “safety and tolerability (adverse events)” value in series [3] is reported as “no clinically significant adverse events observed”.
